Data: patent US20090118316A1, “Methods for Augmenting Bone” (PFZER INC., priority 2004, published 2009)
“Also recorded” adds a separate entry of the source.

Key:
[1] = OVX rat model: body weight; assay type: in vivo; settings: OVX rats, oral gavage 28 days, vs vehicle-treated OVX; PF—X (di-hydrochloride salt) 10 or 30 mg/kg/d, EE 30 μg/kg/d
[2] = system: ovariectomized (OVX) rat model; assay: OVX rat model: serum osteocalcin by RIA; assay type: in vivo; settings: OVX rats, 2 weeks post-treatment, vs vehicle-treated OVX rats
[3] = system: ovariectomized (OVX) rat model; assay: OVX rat model: pQCT analysis of distal femoral metaphysis; assay type: in vivo; settings: OVX rats vs vehicle, PF—X 10 or 30 mg/kg/d, 28 days; for cortical bone content / total bone mineral content / total bone mineral density: EE 30 μg/kg/d
[4] = system: ovariectomized (OVX) rat model; assay: OVX rat model: trabecular bone histomorphometry of proximal tibial metaphysis; assay type: in vivo; settings: OVX rats vs vehicle, PF—X 30 mg/kg/d, 28 days; for bone formation rate/BV / bone formation rate/TV / mineral apposition rate / osteoclast number / osteoclast surface / percent mineralizing surface: EE 30 μg/kg/d
[5] = system: murine mesenchymal stem cells; assay: Calcium deposition in murine MSC; assay type: cell-based, mouse; settings: murine MSCs, OS media, day 21, 1 μM dexamethasone or increasing doses of PF—Y; μg per culture or per μg DNA (FIG. 3)
Protocol: (§1) Calcium Assay. Calcium deposited by the cells was measured using a diagnostic kit (Sigma #587A). Briefly, cells were rinsed twice with DPBS and hydrolyzed in 0.5 N HCl rotating overnight at 4°. Cells were then scraped and cellular debris was pelleted. Supernatants were used to measure calcium levels following manufacturer's protocol. The absorbance at 570 nm was determined and compared to calcium standards. Calcium levels were corrected for the DNA content in each well.
(§2) Murine mesenchymal stem cells isolated from femurs and tibiae of C57BI/6 mice were cultured in alpha-MEM containing 10% fetal bovine serum (FBS) and plated in six well dishes at a density of […]. The day after plating, the media were removed and replaced with media alone, in media with OS, or in OS media containing either 1 μM of dexamethasone or increasing doses of PF—Y for 21 days. “OS” medium” contains 50 μM ascorbic acid and 10 mM β-glycerophosphate. Media were refreshed every 3 days. The amount of alkaline phosphatase was measured on day 7 and day 21. The amounts of secreted calcium were determined only on day 21. The VonKossa stain was done after staining day 21 samples for alkaline phosphatase.

PYK2 = target: T1, PYK2 (Mus musculus, UniProt Q9QVP9); assay: AIF-stimulated phosphorylation of PYK2 tyrosine 402 in MC3T3 cells (immunoprecipitation, SDS-PAGE); assay type: cell-based; settings: Aluminum fluorate (AIF), 3 mM PF—Y (FIG. 7)
T1 construct: endogenous in cells; host or cells: murine MC3T3 cells
Protocol: Murine MC3T3 cells were treated with Aluminum fluorate (AIF) alone or in the presence of 3 mM PF—Y. Cells were lysed and the amount of total PYK2 and phosphorylated PYK2 (P-Y402) were determined by immunoprecipitation with antibodies that recognize total PYK2 or phosphorylated Tyr 402 PYK2 followed by SDS-PAGE.

[6] = system: human mesenchymal stem cells; assay: Calcium deposition in human MSC; assay type: cell-based; settings: human MSCs, compared to OS media alone; PF—Y especially the two lower doses (FIG. 5)
Protocol: as §1
(§3) Human mesenchymal stem cells were cultured in DMEM-high glucose containing 10% FBS and 10 mM l-glutamine and plated in six well dishes at a density of 3×10^4 cells/well. The day after plating, these cultures were treated and analyzed as in Example 2.

murine MC3T3 cells = assay: Alkaline phosphatase activity in MC3T3 cells; assay type: cell-based, mouse; settings: OS media with increasing doses of PF—Y, units per plate or per μg DNA (FIG. 6)
Protocol: (§4) Quantitative Alkaline Phosphatase Measurement. For quantitative alkaline phosphatase measurements, cells were washed twice with Dulbecco's phosphate buffered saline (DPBS) followed by incubation with substrate buffer (50 mM glycine, 1 mM magnesium chloride, pH 10.5) containing 1.3 mg/ml p-nitrophenol phosphate. The levels of alkaline phosphatase activity were determined by measuring the absorbance at 405 nm and compared to p-nitrophenol standards. The level of alkaline phosphatase activity was corrected for the amount of DNA in each sample.
MC3T3 cells were cultured in alpha-MEM media containing 10% FBS and plated in six well dishes at a density of 5×10^4 cells/well. The day after plating, the media were removed and OS media with increasing doses of PF—Y were added. Media were refreshed every 3 days. The amount of alkaline phosphatase was measured as in Example 2 and 3.

[7] = system: murine mesenchymal stem cells; assay: Alkaline phosphatase activity in murine MSC; assay type: cell-based, mouse; settings: murine MSCs, OS media, 1 μM dexamethasone or increasing doses of PF—Y; units per culture or per μg DNA (FIG. 2)
Protocol: as §4, §2

[8] = system: human mesenchymal stem cells; assay: Alkaline phosphatase activity in human MSC; assay type: cell-based; settings: human MSCs, OS media; units per μg DNA (FIG. 4)
Protocol: as §4, §3

T1 sequence (Q9QVP9 whole entry): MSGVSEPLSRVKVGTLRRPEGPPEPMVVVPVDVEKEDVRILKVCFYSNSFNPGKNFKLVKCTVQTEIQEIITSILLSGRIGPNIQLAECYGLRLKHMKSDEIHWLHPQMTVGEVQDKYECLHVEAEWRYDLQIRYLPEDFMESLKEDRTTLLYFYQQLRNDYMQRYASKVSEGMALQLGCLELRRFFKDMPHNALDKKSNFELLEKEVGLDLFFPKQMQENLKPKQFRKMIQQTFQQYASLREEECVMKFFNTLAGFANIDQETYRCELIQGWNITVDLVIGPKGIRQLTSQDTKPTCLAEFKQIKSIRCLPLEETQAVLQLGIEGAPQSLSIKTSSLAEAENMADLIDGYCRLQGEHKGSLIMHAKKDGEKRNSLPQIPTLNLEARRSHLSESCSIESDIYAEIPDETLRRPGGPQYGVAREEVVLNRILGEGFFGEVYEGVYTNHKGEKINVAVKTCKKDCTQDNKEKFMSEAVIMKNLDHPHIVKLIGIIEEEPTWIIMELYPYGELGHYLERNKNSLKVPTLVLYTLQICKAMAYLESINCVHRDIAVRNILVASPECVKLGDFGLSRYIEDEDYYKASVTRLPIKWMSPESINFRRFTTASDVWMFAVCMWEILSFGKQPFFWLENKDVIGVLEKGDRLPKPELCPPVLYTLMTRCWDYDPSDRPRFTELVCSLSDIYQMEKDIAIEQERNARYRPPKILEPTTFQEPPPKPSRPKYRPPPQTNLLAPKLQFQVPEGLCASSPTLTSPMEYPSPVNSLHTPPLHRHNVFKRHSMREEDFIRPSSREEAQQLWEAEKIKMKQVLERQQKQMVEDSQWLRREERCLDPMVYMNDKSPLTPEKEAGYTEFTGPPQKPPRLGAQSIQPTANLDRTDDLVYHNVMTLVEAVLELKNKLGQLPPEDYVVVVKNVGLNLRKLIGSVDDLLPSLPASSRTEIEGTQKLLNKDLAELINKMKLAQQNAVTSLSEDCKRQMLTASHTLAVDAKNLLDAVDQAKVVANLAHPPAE

Row | SMILES | body weight [1] | Serum osteocalcin [2] | cortical bone content [3] | total bone mineral content [3] | total bone mineral density [3] | bone formation rate/BV [4] | bone formation rate/TV [4] | mineral apposition rate [4] | osteoclast number [4] | osteoclast surface [4] | percent mineralizing surface [4] | also measured
1 | C#C[C@]1(O)CC[C@H]2[C@@H]3CCc4cc(O)ccc4[C@H]3CC[C@@]21C [EE, 17[…]-ethynyl estradiol, reference compound] | prevented OVX-induced weight gain | significantly decreased | higher | higher | higher | decreases | decreases | decreases | decreases | decreases | decreases | 
2 | Cc1cc(C)c(/C=C2\C(=O)Nc3ccc(O)cc32)[nH]1 [PF—Y] |  |  |  |  |  |  |  |  |  |  |  | calcium deposition [5]: increased; AIF-induced phosphorylation of tyrosine 402 of PYK2 (PYK2): inhibited; also recorded: inhibition; calcium deposition [6]: increased; alkaline phosphatase activity (murine MC3T3 cells): elevated; alkaline phosphatase activity [7]: elevated; alkaline phosphatase activity [8]: elevated
3 | CN(c1ccccc1CNc1nc(Nc2ccc3c(c2)CC(=O)N3)ncc1C(F)(F)F)S(C)(=O)=O [PF—X] | No significant difference | significantly increased | significant increases | significant increases | significant increases | significant increase | significant increase | significant increase | significant decrease | significant decrease | significant increase | total bone area [3]: significant increases; trabecular bone density [3]: significant increases; trabecular bone volume [4]: significant increase; trabecular thickness [4]: significant increase
